# Measurements from patent US11083707B2, “Substituted indoline derivatives as dengue viral replication inhibitors” (JANSSEN PHARMACEUTICALS, INC., priority 2017, dated 2021).
# Read-outs that look alike come from different tables or passages of the source.
# Tests used:
# [1] = tested on: DENV-2 16681 strain; experiment: DENV-2 antiviral assay (eGFP fluorescence, Vero cells); assay type: cell-based, Dengue virus; details: DENV-2 16681 eGFP, MOI 0.5, 3 days
# Description: The antiviral activity of all the compounds of the invention was tested against the DENV-2 16681 strain which was labeled with enhanced green fluorescent protein (eGPF). The culture medium consists of minimal essential medium supplemented with 2% of heat-inactivated fetal calf serum, 0.04% gentamycin (50 mg/mL) and 2 mM of L-glutamine. Vero cells, obtained from ECACC, were suspended in culture medium and 25 μL was added to 384-well plates (2500 cells/well), which already contain the antiviral compounds. Typically, these plates contain a 5-fold serial dilution of 9 dilution steps of the test compound at 200 times the final concentration in 100% DMSO (200 nL). […] Finally, each plate contains wells which are assigned as virus controls (containing cells and virus in the absence of compound), cell controls (containing cells in the absence of virus and compound) and medium controls (containing medium in the absence of cells, virus and compounds). To the wells assigned as medium control, 25 μL of culture medium was added instead of Vero cells. Once the cells were added to the plates, the plates were incubated for 30 minutes at room temperature to allow the cells to distribute evenly within the wells. Next, the plates were incubated in a fully humidified incubator (37° C., 5% CO2) until the next day. Then, DENV-2 strain 16681, labeled with eGFP, was added at a multiplicity of infection (MOI) of 0.5. Therefore, 15 μL of virus suspension was added to all the wells containing test compound and to the wells assigned as virus control. In parallel, 15 μL of culture medium was added to the medium and cell controls. Next, the plates were incubated for 3 days in a fully humidified incubator (37° C., 5% CO2). At the day of the read out, the eGFP fluorescence was measured using an automated fluorescence microscope at 488 nm (blue laser). Using an in-house LIMS system, inhibition dose response curves for each compound were calculated and the half maximal effective concentration (EC50) was determined. Therefore, the percent inhibition (I) for every test concentration is calculated using the following formula: I=100*(ST-SCC)/(SVC-SCC), ST, SCC and SVC are the amount of eGFP signal in the test compound, cell control and virus control wells, respectively. The EC50 represents the concentration of a compound at which the virus replication is inhibited with 50%, as measured by a 50% reduction of the eGFP fluorescent intensity compared to the virus control. The EC50 is calculated using linear interpolation (Table 1).
# [2] = in vitro; details: African green monkey
# [3] = tested on: Vero cells; details: African green monkey
# [4] = tested on: DENV-1 strain TC974#666; experiment: Tetravalent RT-qPCR assay Protocol A, serotype 1; assay type: cell-based; details: Dengue virus, DENV1, 72 h; RT-qPCR serotype 1 TC974#666, Vero cells, day 3
# Description: (§1) The antiviral activity of the compounds of the invention was tested against DENV-1 strain TC974#666 (NCPV), DENV-2 strain 16681, DENV-3 strain H87 (NCPV) and DENV-4 strain H241 (NCPV) in a RT-qPCR assay. Therefore, Vero cells were infected with either DENV-1, or -2, or -3, or -4 in the presence or absence of test compounds. At day 3 post-infection, the cells were lysed and cell lysates were used to prepare cDNA of both a viral target (the 3′UTR of DENV; Table 2) and a cellular reference gene (β-actin, Table 2). Subsequently, a duplex real time PCR was performed on a Lightcycler480 instrument. The generated Cp value is inversely proportional to the amount of RNA expression of these targets. Inhibition of DENV replication by a test compound results in a shift of Cp's for the 3′UTR gene. On the other hand, if a test compound is toxic to the cells, a similar effect on β-actin expression will be observed. The comparative ΔΔCp method is used to calculate EC50, which is based on the relative gene expression of the target gene (3′UTR) normalized with the cellular housekeeping gene (β-actin). In addition, CC50 values are determined based on the Cp values acquired for the housekeeping gene β-actin.
# (§2) The culture medium consisted of minimal essential medium supplemented with 2% of heat-inactivated fetal calf serum, 0.04% gentamycin (50 mg/mL) and 2 mM of L-glutamine. Vero cells, obtained from ECACC, were suspended in culture medium and 75 μL/well was added in 96-well plates (10000 cells/well), which already contain the antiviral compounds. […] In addition, each plate contains wells which are assigned as virus controls (containing cells and virus in the absence of compound) and cell controls (containing cells in the absence of virus and compound). Once the cells were added in the plates, the plates were incubated in a fully humidified incubator (37° C., 5% CO2) until the next day. Dengue viruses serotype-1, 2, 3 and 4 were diluted in order to obtain a Cp of ˜22-24 in the assay. Therefore, 25 μL of virus suspension was added to all the wells containing test compound and to the wells assigned as virus control. In parallel, 25 μL of culture medium was added to the cell controls. Next, the plates were incubated for 3 days in a fully humidified incubator (37° C., 5% CO2). After 3 days, the supernatant was removed from the wells and the cells were washed twice with ice-cold PBS (˜100 μL). The cell pellets within the 96-well plates were stored at −80° C. for at least 1 day. Next, RNA was extracted using the Cells-to-CT™ lysis kit, according to the manufacturer's guideline (Life Technologies). The cell lysates can be stored at −80° C. or immediately used in the reverse transcription step.
# (§3) In preparation of the reverse transcription step, mix A (table 3A) was prepared and 7.57 μL/well was dispensed in a 96-well plate. After addition of 5 μL of the cell lysates, a five minute denaturation step at 75° C. was performed (table 3B). Afterwards, 7.43 μL of mix B was added (table 3C) and the reverse transcription step was initiated (table 3D) to generate cDNA.
# (§4) Finally, a RT-qPCR mix was prepared, mix C (table 4A), and 22.02 μL/well was dispensed in 96-well LightCycler qPCR plates to which 3 μL of cDNA was added and the qPCR was performed according to the conditions in table 4B on a LightCycler 480.
# (§5) Using the LightCycler software and an in-house LIMS system, dose response curves for each compound were calculated and the half maximal effective concentration (EC50) and the half maximal cytotoxic concentration (CC50) were determined (Tables 5-8).
# [5] = tested on: DENV-2 strain 16681; experiment: Tetravalent RT-qPCR assay Protocol A, serotype 2; assay type: cell-based; details: Dengue virus
# Description: as §1, §2, §3, §4, §5
# [6] = in vitro; assay type: cell-based; details: African green monkey
# Description: as §1, §2, §3, §4, §5
# [7] = tested on: DENV-3 strain H87; experiment: Tetravalent RT-qPCR assay Protocol A, serotype 3; assay type: cell-based; details: Dengue virus, DENV3, 72 h; RT-qPCR serotype 3 H87, Vero cells, day 3
# Description: as §1, §2, §3, §4, §5
# [8] = tested on: DENV-4 strain H241; experiment: Tetravalent RT-qPCR assay Protocol A, serotype 4; assay type: cell-based; details: Dengue virus, DENV4, 72 h; RT-qPCR serotype 4 H241, Vero cells, day 3
# Description: as §1, §2, §3, §4, §5
# [9] = DENV2, 72 h, RT-qPCR serotype 2 16681, Vero cells, day 3, read-out: EC50
Compound,"EC50 ([1]; Dengue virus, DENV2, Vero, 72 h) [nM]",melting point [°C],CC50 [2] [nM],CC50 [3] [nM],EC50 [4] [nM],EC50 [1] [nM],"EC50 [5, 9] [nM]",CC50 at 3 days [6] [nM],EC50 [7] [nM],EC50 [8] [nM],"EC50 ([5]; DENV2, Vero, 72 h) [nM]"
"COc1cc(NC(C(=O)N2CCc3c(C)cc(OC(F)(F)F)cc32)c2ccc(Cl)cc2OCCCC(=O)O)cc(-n2cncn2)c1 (racemic) [Compound 16, 4-(5-chloro-2-(1-((3-methoxy-5-(1H-1,2,4-triazol-1-yl)phenyl)amino)-2-(4-methyl-6-(trifluoromethoxy)indolin-1-yl)-2-oxoethyl)phenoxy)butanoic acid]",0.11,214,11000,–,–,–,–,–,–,–,–
"COc1cc(NC(C(=O)N2CCc3cc(OC)c(C(F)(F)F)cc32)c2ccc(Cl)cc2OCCO)cc(-n2cncn2)c1 (single isomer, unassigned) [Compound 5B]",–,–,–,9200,2,0.62,0.52,> 2500,15,90,–
"COc1cc(NC(C(=O)N2CCc3ccc(OC(F)(F)F)cc32)c2ccc(Cl)cc2OCCC(C)(C)C(=O)O)cc(-n2cncn2)c1 (single isomer, unassigned) [Compound 14B]",–,–,–,9400,0.22,0.27,–,2300,5.5,23,0.16
"COc1cc(NC(C(=O)N2CCc3ccc(C(F)(F)F)cc32)c2ccc(Cl)cc2OCCCC(=O)O)cc(-n2cncn2)c1 (single isomer, unassigned) [Compound 11B]",–,–,–,12000,0.095,0.2,0.059,> 2500,6.5,20,–
